Experimental data as given in patent US6737383B1, “Herbicidal oxadiazolidines” (priority 1999, dated 2004).

Experiments:
[1] = test system: corn; assay: Test B pre/postemergence corn; type: in vivo, Zea mays
How it was run: (§1)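 Test chemicals in a non-phytotoxic solvent mixture with surfactant were sprayed preemergence onto planted seeds and postemergence onto plants 2 to 18 cm tall (1- to 4-leaf stage). After twelve to sixteen days in a greenhouse, injury was visually rated against untreated controls from 0 (no effect) to 10 (complete control).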

[2] = test system: blackgrass; assay: Test B pre/postemergence blackgrass; type: in vivo, Alopecurus myosuroides
How it was run: as §1

[3] = test system: wild oat; assay: Test B pre/postemergence wild oat; type: in vivo, Avena fatua
How it was run: as §1

[4] = test system: bedstraw; assay: Test B pre/postemergence bedstraw; type: in vivo, Galium aparine
How it was run: as §1

[5] = test system: purple nutsedge; assay: Test B pre/postemergence purple nutsedge; type: in vivo, Cyperus rotundus
How it was run: as §1

[6] = test system: velvetleaf; assay: Test B pre/postemergence velvetleaf; type: in vivo, Abutilon theophrasti
How it was run: as §1

[7] = test system: morningglory; assay: Test B pre/postemergence morningglory; type: in vivo, Ipomoea hederacea
How it was run: as §1

[8] = test system: cocklebur; assay: Test B pre/postemergence cocklebur; type: in vivo, Xanthium strumarium
How it was run: as §1

[9] = test system: wheat; assay: Test B pre/postemergence wheat; type: in vivo, Triticum aestivum
How it was run: as §1

[10] = test system: crabgrass; assay: Test B pre/postemergence crabgrass; type: in vivo, Digitaria sanguinalis
How it was run: as §1

[11] = test system: surinam grass; assay: Test B pre/postemergence surinam grass; type: in vivo, Brachiaria decumbens
How it was run: as §1

[12] = test system: pigweed; assay: Test B pre/postemergence pigweed; type: in vivo, Amaranthus retroflexus
How it was run: as §1

[13] = test system: giant foxtail; assay: Test B pre/postemergence giant foxtail; type: in vivo, Setaria faberii
How it was run: as §1

[14] = test system: sugar beet; assay: Test B pre/postemergence sugar beet; type: in vivo, Beta vulgaris
How it was run: as §1

[15] = test system: rape; assay: Test B pre/postemergence rape; type: in vivo, Brassica napus
How it was run: as §1

[16] = test system: soybean; assay: Test B pre/postemergence soybean; type: in vivo, Glycine max
How it was run: as §1

[17] = Postemergence, Rate 62 g/ha, scale of 0 to 10, 0 is no effect, 10 is complete control
[18] = Postemergence, Rate 125 g/ha, scale 0 to 10, 0 is no effect, 10 is complete control
[19] = Postemergence, Rate 500 g/ha, scale 0 to 10, 0 is no effect, 10 is complete control
[20] = Preemergence, Rate 62 g/ha, scale 0 to 10 (0 no effect, 10 complete control)
[21] = Preemergence, Rate 125 g/ha, scale 0 to 10, 0 is no effect, 10 is complete control
[22] = Preemergence, Rate 500 g/ha, scale of 0 to 10 where 0 is no effect and 10 is complete control
[23] = Rate 250 g/ha, Postemergence, scale of 0 to 10 where 0 is no effect and 10 is complete control

Cc1noc(C)c1Cn1c(=O)on(C(=O)N(c2ccc(Cl)cc2)C(C)C)c1=O [Compound 540]
7: Plant response rating, Blackgrass [2, 19] | Rape plant response rating [15, 22] | Plant response rating, Rape [15, 23]
6: Plant response rating, Morningglory [7, 19] | Plant response rating, Sugarbeets [14, 19] | Plant response rating, Sugarbeets [14, 23]
0: Corn plant response rating [1, 17] | Corn plant response rating [1, 18] | Plant response rating, Corn [1, 19] | Corn plant response rating [1, 20] | Corn plant response rating [1, 21] | Corn plant response rating (0 to 10 scale) ([1]; Preemergence, Rate 250 g/ha) | Plant response rating, Corn [1, 23] | Blackgrass plant response rating [2, 17] | Blackgrass plant response rating [2, 18] | Blackgrass plant response rating [2, 20] | Blackgrass plant response rating [2, 21] | Blackgrass plant response rating (0 to 10 scale) ([2]; Preemergence, Rate 250 g/ha) | Wild oats plant response rating [3, 17] | Wild oats plant response rating [3, 18] | Wild oats plant response rating [3, 20] | Plant response rating, Wild oats [3, 23] | Bedstraw plant response rating [4, 17] | Bedstraw plant response rating [4, 20] | Bedstraw plant response rating [4, 21] | Bedstraw plant response rating (0 to 10 scale) ([4]; Preemergence, Rate 250 g/ha) | Bedstraw plant response rating [4, 22] | Nutsedge plant response rating [5, 17] | Nutsedge plant response rating [5, 18] | Plant response rating, Nutsedge [5, 19] | Nutsedge plant response rating [5, 21] | Nutsedge plant response rating (0 to 10 scale) ([5]; Preemergence, Rate 250 g/ha) | Nutsedge plant response rating [5, 22] | Plant response rating, Nutsedge [5, 23] | Velvetleaf plant response rating [6, 17] | Velvetleaf plant response rating [6, 18] | Velvetleaf plant response rating [6, 20] | Velvetleaf plant response rating [6, 21] | Velvetleaf plant response rating (0 to 10 scale) ([6]; Preemergence, Rate 250 g/ha) | Velvetleaf plant response rating [6, 22] | Plant response rating, Velvetleaf [6, 23] | Morningglory plant response rating [7, 20] | Morningglory plant response rating [7, 21] | Morningglory plant response rating (0 to 10 scale) ([7]; Preemergence, Rate 250 g/ha) | Morningglory plant response rating [7, 22] | Cocklebur plant response rating [8, 17] | Cocklebur plant response rating [8, 18] | Plant response rating, Cocklebur [8, 19] | Cocklebur plant response rating [8, 20] | Cocklebur plant response rating [8, 21] | Plant response rating, Cocklebur [8, 23] | Wheat plant response rating [9, 17] | Wheat plant response rating [9, 18] | Plant response rating, Wheat [9, 19] | Wheat plant response rating [9, 20] | Wheat plant response rating [9, 21] | Wheat plant response rating (0 to 10 scale) ([9]; Preemergence, Rate 250 g/ha) | Wheat plant response rating [9, 22] | Plant response rating, Wheat [9, 23] | B. signalgrass plant response rating [11, 17] | B. signalgrass plant response rating [11, 18] | B. signalgrass plant response rating [11, 20] | B. signalgrass plant response rating [11, 21] | B. signalgrass plant response rating (0 to 10 scale, 0 is no effect, 10 is complete control) ([11]; Preemergence, Rate 250 g/ha) | Plant response rating, B. signalgrass [11, 23] | Redroot pigweed plant response rating [12, 17] | Redroot pigweed plant response rating [12, 18] | Redroot pigweed plant response rating [12, 20] | Redroot pigweed plant response rating [12, 21] | Giant foxtail plant response rating [13, 17] | Giant foxtail plant response rating [13, 18] | Plant response rating, Giant foxtail [13, 23] | Sugarbeets plant response rating [14, 17] | Sugarbeets plant response rating [14, 20] | Sugarbeets plant response rating [14, 21] | Sugarbeets plant response rating (0 to 10 scale) ([14]; Preemergence, Rate 250 g/ha) | Rape plant response rating [15, 17] | Rape plant response rating [15, 20] | Rape plant response rating [15, 21] | Soybean plant response rating [16, 20] | Soybean plant response rating [16, 21] | Soybean plant response rating (0 to 10 scale) ([16]; Preemergence, Rate 250 g/ha) | Soybean plant response rating [16, 22]
1: Plant response rating, Velvetleaf [6, 19] | Soybean plant response rating [16, 17] | Soybean plant response rating [16, 18] | Plant response rating, Soybean [16, 19] | Plant response rating, Soybean [16, 23]
9: Blackgrass plant response rating [2, 22] | Plant response rating, Bedstraw [4, 19] | Cocklebur plant response rating (0 to 10 scale) ([8]; Preemergence, Rate 250 g/ha) | Crabgrass plant response rating [10, 21] | Giant foxtail plant response rating [13, 20] | Giant foxtail plant response rating [13, 21]
2: Corn plant response rating [1, 22] | Plant response rating, Blackgrass [2, 23] | Plant response rating, Wild oats [3, 19] | Wild oats plant response rating [3, 21] | Wild oats plant response rating (0 to 10 scale) ([3]; Preemergence, Rate 250 g/ha) | Morningglory plant response rating [7, 17] | Plant response rating, Redroot pigweed [12, 19] | Plant response rating, Redroot pigweed [12, 23] | Sugarbeets plant response rating [14, 18] | Rape plant response rating [15, 18] | Rape plant response rating (0 to 10 scale) ([15]; Preemergence, Rate 250 g/ha)
10: Plant response rating, Bedstraw [4, 23] | Cocklebur plant response rating [8, 22] | Crabgrass plant response rating (0 to 10 scale) ([10]; Preemergence, Rate 250 g/ha) | Crabgrass plant response rating [10, 22] | Redroot pigweed plant response rating [12, 22] | Giant foxtail plant response rating (0 to 10 scale) ([13]; Preemergence, Rate 250 g/ha) | Giant foxtail plant response rating [13, 22]
3: Bedstraw plant response rating [4, 18] | Plant response rating, B. signalgrass [11, 19] | Redroot pigweed plant response rating (0 to 10 scale) ([12]; Preemergence, Rate 250 g/ha) | Plant response rating, Giant foxtail [13, 19]
4: Morningglory plant response rating [7, 18] | Sugarbeets plant response rating [14, 22]
5: Plant response rating, Morningglory [7, 23] | Crabgrass plant response rating [10, 17] | Crabgrass plant response rating [10, 18] | Plant response rating, Crabgrass [10, 23]
8: Wild oats plant response rating [3, 22] | Plant response rating, Crabgrass [10, 19] | Crabgrass plant response rating [10, 20] | B. signalgrass plant response rating [11, 22]
